Reference: patent US20100197788A9, “Preventive or therapeutic agent for disease caused by decrease in lacrimal fluid” (priority 2005, published 2010)
Structures can show the parent of a compound that is named as a salt.

How the values were obtained:
[1] = test system: male Japanese white rabbits; test: Measurement of tear secretion in rabbits given a β3 AR stimulant (Example 1), with or without ICI-118551 pre-treatment; assay type: in vivo, rabbit
Description: Four fasting male Japanese white rabbits (about 3 kg) were allocated to each group. Compound 1 (hydrochloride, 3 or 30 mg/kg), a β3 AR stimulant, or the vehicle (0.5% gum Arabic) was administered to the duodenum through a needle placed in the duodenum of a rabbit, which was anesthetized with urethane (25%, 5 mL/kg, subcutaneously). The quantity of tear secretion was measured for 5 min before drug administration and for 5 min at 20 min after drug administration in the following manner. One piece each of pre-weighed filter paper (Wattman No. 41, 0.22 mm thick, 2.5×1.5 mm) was inserted to each of the upper and lower eyelids of either right or left eye. The difference in weight of the filter papers before and after insertion (post-insertion weight−pre-insertion weight) was defined as the quantity of tear secretion. Fifty (50) μL of a local anesthetic agent, 0.4% oxybuprocaine hydrochloride (Santen Co.), was instilled into eyes 5 min before each measurement. Tear and the instilled local anesthetic were wiped immediately before the filter paper was inserted. Filter papers recovered after each measurement were placed into tubes. A phosphate buffer (pH 7.4) (500 μL) was added to each of the tubes, and they were agitated for 30 sec. After the filter papers were removed and the mixture was centrifuged at 1,880×g for 5 min, protein concentrations in supernatant were measured using Micro BCA Protein Assay Reagent Kit (Pierce Co.). The quantity of protein in tear was calculated based on the protein concentration and the quantity of tear secretion at each time. The difference in the quantity of tear secretion before administration of a test drug and that at each measurement after administration was defined as a change in the quantity of tear secretion or protein in tear. Each milligram of the change in the quantity of tear was taken as 1 μL in tabulation. As a result, administration of Compound 1 (hydrochloride, 3 or 30 mg/kg) into the duodenum facilitated the tear secretion and protein secretion in tear.
In addition, in order to study the role played by a β2 AR stimulating activity in the above-described actions of Compound 1, 30 μg/kg of ICI-118551 (Sigma Co.), a selective β2 AR inhibitor, was administered intravenously 5 min before administration of Compound 1 (30 mg/kg) and the same test was performed. The facilitating activities of tear secretion and protein secretion in tear by Compound 1 were not affected by pre-treatment with the selective β2 AR inhibitor, ICI-118551 (30 μg/kg, i.v.) (FIG. 5). The results confirmed that the Compound 1's activities facilitating tear secretion and protein secretion in tear were exerted by way of β3 AR.

[2] = test system: male Japanese white rabbits; test: Measurement of tear in rabbits given a β3 AR stimulant having a β2 AR stimulating activity (Example 2); assay type: in vivo, rabbit; conditions: for total quantity of protein secretion in tear / total quantity of tear secretion: 60 min, compared to Control group
Description: Four fasting male Japanese white rabbits (about 3 kg) were allocated to each group. Compound 2 (0.3, 1 or 10 mg/kg), which is a β3 AR stimulant having a β2 AR stimulating activity, terbutaline sulfate (10 mg/kg), which is a β2 AR stimulant, or their vehicle (distilled water) was administered to the duodenum through a needle placed in the duodenum of a rabbit which was anesthetized with urethane (25%, 5 mL/kg, subcutaneously). In the same manner as in Example 1, quantities of tear secretion and protein in tear were measured for each 5 min before drug administration and at 5, 20, 30, 40 and 50 min after drug administration. The total quantities of tear secretion and protein in tear were defined as the sum total of the quantities of secretion at each measurement time during 60 min after administration of the test drug. Each […] of the change in the quantity of tear was considered as 1 μL in tabulation.

[3] = test system: rabbit conjunctiva; test: Mucin secretion from the rabbit conjunctiva following ocular instillation, impression cytology method (Example 5); assay type: in vivo; conditions: 0.1% solution, 50 μL, 30 min after instillation, vs vehicle, rabbits
Description: Four male Japanese white rabbits (about 3 kg) were allocated to each group. After rabbits were anesthetized with ketamine-xylazine (3:1), 50 μL of Compound 2 (0.1% solution), terbutaline sulfate (0.1% solution) or their vehicle (a phosphate buffer solution, pH 7.4) were instilled in either side of eyes. Mucin secretion from the conjunctiva was measured 30 min after instillation by impression cytology method. That is, after ocular instillation of 50 μL of a local anesthetic (0.4% oxybuprocaine hydrochloride by Santen Co.), residual tear was wiped 5 min after instillation and 3×3 mm cellulose acetate filter paper was pressed on the conjunctiva for 30 sec. Then, PAS staining was performed with the recovered filter papers in the same manner as in Example 2. After filter papers were cleared and embedded, the number of PAS positive goblet cells existing in a certain visual field of a microscope was counted. Decreases in the count of PAS positive goblet cells indicate that mucin secretion from the conjunctiva is facilitated. […] However, terbutaline sulfate had no effect (FIG. 9).

[4] = test system: male SD strain rats; test: Measurement of tear in rats given a β3 AR stimulant having a β2 AR stimulating activity (Example 3); assay type: in vivo, rat; conditions: for total quantity of protein secretion in tear / total quantity of tear secretion: 60 min, compared to Control group
Description: Nine (9) to 10 fasting male SD strain rats (7 weeks old) were allocated to each group. Rats were fixed in prone position under urethane anesthesia (25%, 5 mL/kg, subcutaneously). Compound 2 (0.3, 1 or 10 mg/kg), which is a β3 AR stimulant having a β2 AR stimulating activity, terbutaline sulfate (10 mg/kg), which is a β2 AR stimulant, or their vehicle (distilled water) were administered to the duodenum through a needle placed in the duodenum. One end of a capillary (Drummond Microdispenser Co. 10 μL) was placed at the inner canthus of rat right eye after tear was wiped. The quantity of tear secretion was measured by the length of the capillary filled with tear in 60 minutes after drug administration. The total quantity of tear secretion (μL) was calculated using the inner diameter of the capillary and the length of the capillary filled with tear. After the quantity of tear secretion was measured, the tear in the capillary was recovered in a tube to measure the protein concentration using Micro BCA Protein Assay Reagent Kit (Pierce Co.). The total quantity of protein in tear was calculated using the obtained protein concentration and the total quantity of tear secretion.

[5] = test system: male Japanese white rabbits; test: Measurement of tear in rabbits following ocular instillation (Example 4); assay type: in vivo, rabbit; conditions: 0.1% solution, 50 μL
Description: Four fasting male Japanese white rabbits (about 3 kg) were allocated to each group. After rabbits were anesthetized with urethane (25%, 5 mL/kg, subcutaneously), 50 μL of Compound 2 (0.1% solution) or the vehicle (a phosphate buffer solution, pH 7.4) was instilled in either right or left eye. The quantity of tear secretion was measured and calculated for each 5 min before and at 5 and 20 min after instillation in the same manner as in Example 1. The difference in the quantity of tear secretion before administration of a test drug and that at each measurement time after ocular instillation was defined as a change in the quantity of tear secretion. Each milligram of the change in the quantity of tear secretion was considered as 1 μL in tabulation.

[6] = Compound 1 30 mg/kg, ICI-118551 30 μg/kg i.v. 5 min before
[7] = hydrochloride, 3 or 30 mg/kg into the duodenum, anesthetized rabbits, 5 min at 20 min after administration vs before
[8] = 10 mg/kg into the duodenum, compared to Compound 2 (10 mg/kg) group
[9] = 0.3, 1 and 10 mg/kg into the duodenum
[10] = doses of 1 mg/kg and above into the duodenum

Which results are given for `CCOC(=O)COc1cc(C)c(CCN[C@@H](C)[C@H](O)c2ccc(O)cc2)cc1C` [Compound 1, ethyl 2-[4-[2-[[(1S,2R)-2-hydroxy-2-(4-hydroxy-phenyl)-1-methylethyl]amino]ethyl]-2,5-dimethylphenoxy]-acetate]?
change in the quantity of protein in tear ([1]; 30 mg/kg into the duodenum, compared to Control group (p<0.05, Dunnett)): significantly increased; facilitating activity of protein secretion in tear after pre-treatment with selective β2 AR inhibitor [1, 6]: not affected; facilitating activity of tear secretion after pre-treatment with selective β2 AR inhibitor [1, 6]: not affected; protein secretion in tear [1, 7]: facilitated; tear secretion [1, 7]: facilitated

What does the source list for `CC(C)(C)NCC(O)c1cc(O)cc(O)c1` (stereo not drawn) [terbutaline sulfate, reference compound]?
total quantity of protein secretion in tear ([2]; 10 mg/kg into the duodenum): significantly increased; total quantity of tear secretion ([2]; 10 mg/kg into the duodenum): significantly increased; increase in total quantity of protein secretion in tear [2, 8]: significantly lower; increase in total quantity of tear secretion [2, 8]: significantly lower; mucin secretion from the conjunctiva (count of PAS positive goblet cells) [3]: no effect; total quantity of protein secretion in tear ([4]; 10 mg/kg into the duodenum): significantly increased; total quantity of tear secretion ([4]; 10 mg/kg into the duodenum): significantly increased; total quantity of protein in tear [4, 8]: significantly lower

What does the source list for `C[C@H](NCCc1ccc(OCC(=O)O)cc1)[C@H](O)c1ccc(O)cc1` [Compound 2]?
protein secretion in tear [2, 9]: facilitated dose-dependently; tear secretion [2, 9]: facilitated dose-dependently; total quantity of protein secretion in tear [2, 10]: significantly increased; total quantity of tear secretion [2, 10]: significantly increased; mucin secretion from the conjunctiva (count of PAS positive goblet cells) [3]: facilitated mucin secretion from the conjunctiva more than the vehicle did; protein secretion in tear [4, 9]: facilitated dose-dependently; tear secretion [4, 9]: facilitated dose-dependently; total quantity of protein secretion in tear [4, 10]: significantly increased; total quantity of tear secretion [4, 10]: significantly increased; tear secretion [5]: facilitated; quantity of tear secretion measured for 5 min after ocular instillation ([5]; compared to Control group): significantly increased
